Results from patent US10758534B2 (Vertex Pharmaceuticals Incorporated, priority 2014, dated 2020).
Like-named read-outs stand apart in the source and are kept apart here.

Biological target: T1, F508del (Homo sapiens, UniProt P13569, DEL508-508)
T1 construct: expressed in transfected cells
Assay: Protocol 2: FRET membrane potential optical assay (VIPR), identification of correction compounds
Assay type: cell-based
From the text: Membrane potential optical methods for assaying F508del modulation properties of compounds.
These voltage sensitive assays are based on the change in fluorescence resonant energy transfer (FRET) between the membrane-soluble, voltage-sensitive dye, DiSBAC2(3), and a fluorescent phospholipid, CC2-DMPE, which is attached to the outer leaflet of the plasma membrane and acts as a FRET donor. Changes in membrane potential (Vm) cause the negatively charged DiSBAC2(3) to redistribute across the plasma membrane and the amount of energy transfer from CC2-DMPE changes accordingly. The changes in fluorescence emission were monitored using VIPR™ II, which is an integrated liquid handler and fluorescent detector designed to conduct cell-based screens in 96- or 384-well microtiter plates.
To identify small molecules that correct the trafficking defect associated with F508del; a single-addition HTS assay format was developed. The cells were incubated in serum-free medium for 16 hrs at 37° C. in the presence or absence (negative control) of test compound. As a positive control, cells plated in 384-well plates were incubated for 16 hrs at 27° C. to “temperature-correct” F508del. The cells were subsequently rinsed 3× with Krebs Ringers solution and loaded with the voltage-sensitive dyes. To activate F508del, 10 μM forskolin and the CFTR potentiator, genistein (20 μM), were added along with Cl^−-free medium to each well. The addition of Cl^−-free medium promoted Cl^− efflux in response to F508del activation and the resulting membrane depolarization was optically monitored using the FRET-based voltage-sensor dyes.
• Bath Solution #1: (in mM) NaCl 160, KCl 4.5, CaCl2 2, MgCl2 1, HEPES 10, pH 7.4 with NaOH. • Chloride-free bath solution: Chloride salts in Bath Solution #1 (above) are substituted with gluconate salts. • CC2-DMPE: Prepared as a 10 mM stock solution in DMSO and stored at −20° C. • DiSBAC2(3): Prepared as a 10 mM stock in DMSO and stored at −20° C. Cell Culture
NIH3T3 mouse fibroblasts stably expressing F508del are used for optical measurements of membrane potential. The cells are maintained at 37° C. in 5% CO2 and 90% humidity in Dulbecco's modified Eagle's medium supplemented with 2 mM glutamine, 10% fetal bovine serum, 1×NEAA, β-ME, 1× pen/strep, and 25 mM HEPES in 175 cm^2 culture flasks. For all optical assays, the cells were seeded at 30,000/well in 384-well matrigel-coated plates and cultured for 2 hrs at 37° C. before culturing at 27° C. for 24 hrs for the potentiator assay. For the correction assays, the cells are cultured at 27° C. or 37° C. with and without compounds for 16-24 hours.

[1] = Table 3, compounds of Table 1 as modulators of CFTR activity, protocol not stated
[2] = F508del CFTR modulator activity, compounds of Table 1, read-out: EC30

T1 sequence (P13569 with tags, fused parts or gaps DEL508-508): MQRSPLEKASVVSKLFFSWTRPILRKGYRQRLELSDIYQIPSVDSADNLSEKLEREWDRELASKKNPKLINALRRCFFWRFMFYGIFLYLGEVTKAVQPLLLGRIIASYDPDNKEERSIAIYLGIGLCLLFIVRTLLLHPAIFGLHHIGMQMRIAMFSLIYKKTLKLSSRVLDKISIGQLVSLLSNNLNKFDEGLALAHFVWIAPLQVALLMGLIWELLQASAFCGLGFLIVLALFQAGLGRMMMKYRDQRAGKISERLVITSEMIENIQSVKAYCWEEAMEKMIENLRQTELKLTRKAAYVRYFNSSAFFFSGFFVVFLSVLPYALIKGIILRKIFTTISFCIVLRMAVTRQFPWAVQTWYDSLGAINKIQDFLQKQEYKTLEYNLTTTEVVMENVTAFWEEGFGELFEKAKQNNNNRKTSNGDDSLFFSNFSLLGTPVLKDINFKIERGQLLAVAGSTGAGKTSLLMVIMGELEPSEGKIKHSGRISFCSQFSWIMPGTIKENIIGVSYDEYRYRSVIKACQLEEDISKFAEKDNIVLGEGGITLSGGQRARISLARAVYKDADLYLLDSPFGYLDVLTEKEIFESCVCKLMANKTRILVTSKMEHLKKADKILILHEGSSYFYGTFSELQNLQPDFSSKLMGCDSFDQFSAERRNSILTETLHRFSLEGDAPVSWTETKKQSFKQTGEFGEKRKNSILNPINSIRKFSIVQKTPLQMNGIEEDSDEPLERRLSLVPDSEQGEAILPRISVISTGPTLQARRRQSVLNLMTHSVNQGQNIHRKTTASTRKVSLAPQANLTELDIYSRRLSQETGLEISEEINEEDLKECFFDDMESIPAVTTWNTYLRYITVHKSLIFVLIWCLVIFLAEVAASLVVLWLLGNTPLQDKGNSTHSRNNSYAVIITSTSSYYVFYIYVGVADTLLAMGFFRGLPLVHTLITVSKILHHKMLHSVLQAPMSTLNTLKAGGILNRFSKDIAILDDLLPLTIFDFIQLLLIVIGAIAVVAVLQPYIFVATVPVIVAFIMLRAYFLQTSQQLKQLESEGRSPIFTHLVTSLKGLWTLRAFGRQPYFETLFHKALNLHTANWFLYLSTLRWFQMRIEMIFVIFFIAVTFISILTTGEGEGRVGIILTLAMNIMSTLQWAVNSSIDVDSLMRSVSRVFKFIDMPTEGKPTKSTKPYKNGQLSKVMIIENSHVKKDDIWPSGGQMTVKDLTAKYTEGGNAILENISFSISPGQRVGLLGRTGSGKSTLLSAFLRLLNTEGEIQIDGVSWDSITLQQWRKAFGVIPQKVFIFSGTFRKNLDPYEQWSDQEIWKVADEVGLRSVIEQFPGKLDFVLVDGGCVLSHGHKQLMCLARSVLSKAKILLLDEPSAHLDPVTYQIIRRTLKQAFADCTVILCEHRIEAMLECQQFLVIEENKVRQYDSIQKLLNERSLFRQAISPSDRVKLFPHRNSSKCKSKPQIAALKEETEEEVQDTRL

| EC30 [1] | EC30 [2] | Structure (SMILES) |
| --- | --- | --- |
| + (“+” means greater than 10 uM) | – | COc1cccc(-c2ccc(C(=O)NS(=O)(=O)c3ccc[nH]c3=O)c(N3[C@H](C)CC[C@@H]3C)n2)n1 [Compound 781, 2-[(2S,5R)-2,5-dimethylpyrrolidin-1-yl]-6-(6-methoxy-2-pyridyl)-N-[(2-oxo-1H-pyridin-3-yl)sulfonyl]pyridine-3-carboxamide] |
| – | < 3000 nM | COc1ccc2nc(N3C[C@@H](C)CC3(C)C)c(C(=O)NS(=O)(=O)c3cccc(N)n3)cc2c1 [Compound 2196, N-[(6-amino-2-pyridyl)sulfonyl]-6-methoxy-2-[(4S)-2,2,4-trimethylpyrrolidin-1-yl]quinoline-3-carboxamide] |
| – | < 3000 nM | CC1CN(c2ncccc2C(=O)NS(=O)(=O)c2cccc(OCc3ccc(F)cc3F)n2)C(C)(C)C1 (stereo not shown) [Compound 2099, N—[[6-[(2,4-difluorophenyl)methoxy]-2-pyridyl]sulfonyl]-2-(2,2,4-trimethylpyrrolidin-1-yl)pyridine-3-carboxamide] |
| – | < 3000 nM | C[C@@H]1CN(c2nc(-c3cccc(C(F)(F)F)c3)ccc2C(=O)NS(=O)(=O)c2cccc(N)n2)C(C)(C)C1 [Compound 2392, N-[(6-amino-2-pyridyl)sulfonyl]-6-[3-(trifluoromethyl)phenyl]-2-[(4S)-2,2,4-trimethylpyrrolidin-1-yl]pyridine-3-carboxamide] |
| – | 3000 to 10000 nM | CCOCCNc1cccc(S(=O)(=O)NC(=O)c2cccnc2N2CC(C)CC2(C)C)n1 (stereo not shown) [Compound 2354, N—[[6-(2-ethoxyethylamino)-2-pyridyl]sulfonyl]-2-(2,2,4-trimethylpyrrolidin-1-yl)pyridine-3-carboxamide] |
| – | < 3000 nM | CCOc1cc(C)cc(-c2ccc(C(=O)NS(=O)(=O)c3cccc(N)n3)c(Oc3c(C)cc(C)cc3C)n2)n1 [Compound 2511, N-[(6-amino-2-pyridyl)sulfonyl]-6-(6-ethoxy-4-methyl-2-pyridyl)-2-(2,4,6-trimethylphenoxy)pyridine-3-carboxamide] |
| – | < 3000 nM | CC1CN(c2ncccc2C(=O)NS(=O)(=O)c2cccc(Oc3cccc(Cl)c3)n2)C(C)(C)C1 (stereo not shown) [Compound 2461, N—[[6-(3-chlorophenoxy)-2-pyridyl]sulfonyl]-2-(2,2,4-trimethylpyrrolidin-1-yl)pyridine-3-carboxamide] |

Second part, the compound before the results:

| Structure (SMILES) | EC30 [1] | EC30 [2] |
| --- | --- | --- |
| CNc1cccc(S(=O)(=O)NC(=O)c2ccc(C)nc2Oc2c(C)cc(C)cc2C)n1 [Compound 646, 6-methyl-N-[[6-(methylamino)-2-pyridyl]sulfonyl]-2-(2,4,6-trimethylphenoxy)pyridine-3-carboxamide] | ++ (“++” means between 3 uM and 10 uM) | – |
| CC(C)COc1cc(F)cc(-c2ccc(C(=O)NS(=O)(=O)c3cccc(N)n3)c(N3CCCCC3C)n2)c1 (stereo not shown) [Compound 425, N-[(6-amino-2-pyridyl)sulfonyl]-6-(3-fluoro-5-isobutoxy-phenyl)-2-(2-methyl-1-piperidyl)pyridine-3-carboxamide] | +++ (“+++” means <3 uM) | – |
| Cc1ccc(-c2nc(C(C)(C)C)ccc2C(=O)NS(=O)(=O)c2cccc(N)n2)cc1 [Compound 58, N-[(6-amino-2-pyridyl)sulfonyl]-6-tert-butyl-2-(p-tolyl)pyridine-3-carboxamide] | ++ (“++” means between 3 uM and 10 uM) | – |
| CCC1(C)C[C@@H](C)CN1c1nc(-c2cc(F)cc(OCC(C)C)c2)ccc1C(=O)NS(=O)(=O)c1cccc(N)n1 (single isomer, unassigned) [Compound 2058, N-[(6-amino-2-pyridyl)sulfonyl]-2-(2-ethyl-2,4-dimethyl-pyrrolidin-1-yl)-6-(3-fluoro-5-isobutoxy-phenyl)pyridine-3-carboxamide] | – | < 3000 nM |
| Cc1cc(C)c(Cn2c(C(=O)NS(=O)(=O)c3ccccc3)c(C)c3ccccc32)c(C)c1 [Compound 232, N-(benzenesulfonyl)-3-methyl-1-[(2,4,6-trimethylphenyl)methyl]indole-2-carboxamide] | +++ (“+++” means <3 uM) | – |
| Cc1cccc(C)c1Cn1nc(C2CCCC2)cc1C(=O)NS(=O)(=O)c1cccc(N)c1 [Compound 105, N-(3-aminophenyl)sulfonyl-5-cyclopentyl-2-[(2,6-dimethylphenyl)methyl]pyrazole-3-carboxamide] | +++ (“+++” means <3 uM) | – |
| COc1ccc2c(c1)C(C)(C(=O)NS(=O)(=O)c1cccc(N)n1)N(Cc1c(C)cc(C)cc1C)C2 (stereo not shown) [Compound 474, N-[(6-amino-2-pyridyl)sulfonyl]-6-methoxy-1-methyl-2-[(2,4,6-trimethylphenyl)methyl]isoindoline-1-carboxamide] | +++ (“+++” means <3 uM) | – |
| Cc1cccc(C)c1Cn1nc(-c2cccc(OC(F)(F)F)c2)cc1C(=O)NS(=O)(=O)c1ccccc1 [Compound 225, N-(benzenesulfonyl)-2-[(2,6-dimethylphenyl)methyl]-5-[3-(trifluoromethoxy)phenyl]pyrazole-3-carboxamide] | +++ (“+++” means <3 uM) | – |
| C[C@@H]1CC[C@H](C)N1c1nc(-c2cc(F)cc(OCC3CC3)c2)ccc1C(=O)NS(=O)(=O)c1ccc[nH]c1=O [Compound 541, 6-[3-(cyclopropylmethoxy)-5-fluoro-phenyl]-2-[(2S,5R)-2,5-dimethylpyrrolidin-1-yl]-N-[(2-oxo-1H-pyridin-3-yl)sulfonyl]pyridine-3-carboxamide] | +++ (“+++” means <3 uM) | – |
| Cc1cc(C)c(Oc2nc(C(C)(C)C)ccc2C(=O)NS(=O)(=O)c2ccc(N)cc2)c(C)c1 [Compound 11, N-(4-aminophenyl)sulfonyl-6-tert-butyl-2-(2,4,6-trimethylphenoxy)pyridine-3-carboxamide] | +++ (“+++” means <3 uM) | – |
| CC(C)c1ccc(-c2ccc(C(=O)NS(=O)(=O)c3cccc(N)n3)c(N3C[C@@H](C)CC3(C)C)n2)cc1 [Compound 630, N-[(6-amino-2-pyridyl)sulfonyl]-6-(4-isopropylphenyl)-2-[(4S)-2,2,4-trimethylpyrrolidin-1-yl]pyridine-3-carboxamide] | +++ (“+++” means <3 uM) | – |
| CC1CN(c2nc(-c3ccc(Cl)c(OC(C)C)c3)ccc2C(=O)NS(=O)(=O)c2cccc(N)n2)C(C)(C)C1 (stereo not shown) [Compound 504, N-[(6-amino-2-pyridyl)sulfonyl]-6-(4-chloro-3-isopropoxy-phenyl)-2-(2,2,4-trimethylpyrrolidin-1-yl)pyridine-3-carboxamide] | +++ (“+++” means <3 uM) | – |
| Cc1cc(C)c(Oc2nc(-c3cc(F)cc(OCC(C)C)c3)ccc2C(=O)NS(=O)(=O)c2ccc[nH]c2=O)c(C)c1 [Compound 169, 6-(3-fluoro-5-isobutoxy-phenyl)-N-[(2-oxo-1H-pyridin-3-yl)sulfonyl]-2-(2,4,6-trimethylphenoxy)pyridine-3-carboxamide] | +++ (“+++” means <3 uM) | – |
| Cc1cc(C)c(Oc2nc(-c3cc(F)cc(OC(C)C)c3)ccc2C(=O)NS(=O)(=O)c2ccc[nH]c2=O)c(C)c1 [Compound 645, 6-(3-fluoro-5-isopropoxy-phenyl)-N-[(2-oxo-1H-pyridin-3-yl)sulfonyl]-2-(2,4,6-trimethylphenoxy)pyridine-3-carboxamide] | ++ (“++” means between 3 uM and 10 uM) | – |
| Cc1cc(C)c(CN2Cc3cccc(C)c3CC2C(=O)NS(=O)(=O)c2cccc(N)n2)c(C)c1 (stereo not shown) [Compound 95, N-[(6-amino-2-pyridyl)sulfonyl]-5-methyl-2-[(2,4,6-trimethylphenyl)methyl]-3,4-dihydro-H-isoquinoline-3-carboxamide] | +++ (“+++” means <3 uM) | – |
